Laboratory results: PubChem BioAssay (NCI)
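A five-concentration, 48-hour dose response in 96-well plates underlies each endpoint, interpolated linearly between surrounding concentrations. GI50: concentration for 50% inhibition of growth. TGI marks complete inhibition of growth.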

Assays:
Test in all cases: inhibition of tumour cell growth, NCI panel, 48 h
SK-MEL-5 melanoma = test system: SK-MEL-5 melanoma
IGROV1 ovarian = test system: IGROV1 ovarian
HOP-92 NSCLC = test system: HOP-92 NSCLC
MALME-3M melanoma = test system: MALME-3M melanoma
BT-549 breast = test system: BT-549 breast
MDA-MB-231 breast = test system: MDA-MB-231 breast
OVCAR-4 ovarian = test system: OVCAR-4 ovarian
HCC-2998 colon = test system: HCC-2998 colon
MDA-MB-435 = test system: MDA-MB-435
SN12C renal = test system: SN12C renal
UACC-257 melanoma = test system: UACC-257 melanoma
UACC-62 melanoma = test system: UACC-62 melanoma
MOLT-4 leukemia = test system: MOLT-4 leukemia
HCT-116 colon = test system: HCT-116 colon
ACHN renal = test system: ACHN renal
HOP-62 NSCLC = test system: HOP-62 NSCLC
CAKI-1 renal = test system: CAKI-1 renal
SF-539 CNS = test system: SF-539 CNS
SF-268 CNS = test system: SF-268 CNS
HL-60(TB) leukemia = test system: HL-60(TB) leukemia
786-0 renal = test system: 786-0 renal
RXF 393 renal = test system: RXF 393 renal
NCI-H23 lung = test system: NCI-H23 lung
M14 melanoma = test system: M14 melanoma
SF-295 CNS = test system: SF-295 CNS
U251 CNS = test system: U251 CNS
OVCAR-8 ovarian = test system: OVCAR-8 ovarian
NCI/ADR-RES ovarian = test system: NCI/ADR-RES ovarian
OVCAR-5 ovarian = test system: OVCAR-5 ovarian
T-47D breast = test system: T-47D breast
SK-MEL-28 melanoma = test system: SK-MEL-28 melanoma
NCI-H226 lung = test system: NCI-H226 lung
SW-620 colon = test system: SW-620 colon
SNB-75 CNS = test system: SNB-75 CNS
K-562 leukemia = test system: K-562 leukemia
A549 NSCLC = test system: A549 NSCLC
RPMI-8226 leukemia = test system: RPMI-8226 leukemia
OVCAR-3 ovarian = test system: OVCAR-3 ovarian
HS 578T breast = test system: HS 578T breast
SNB-19 CNS = test system: SNB-19 CNS
TK-10 renal = test system: TK-10 renal
LOX IMVI melanoma = test system: LOX IMVI melanoma
CCRF-CEM leukemia = test system: CCRF-CEM leukemia
KM12 colon = test system: KM12 colon
UO-31 renal = test system: UO-31 renal
PC-3 prostate = test system: PC-3 prostate
SK-OV-3 ovarian = test system: SK-OV-3 ovarian
A498 renal = test system: A498 renal
HCT-15 colon = test system: HCT-15 colon
DU-145 prostate = test system: DU-145 prostate
HT29 colon = test system: HT29 colon
EKVX NSCLC = test system: EKVX NSCLC
COLO 205 colon = test system: COLO 205 colon
SK-MEL-2 melanoma = test system: SK-MEL-2 melanoma

COc1ccc(/C=N/NC2=NC3C(S2)N(C)C(=O)N3C)cc1 (configuration not stated)
GI50 (SK-MEL-5 melanoma): 2.95 µM | TGI (SK-MEL-5 melanoma): 10.6 µM | GI50 (IGROV1 ovarian): 4.72 µM | TGI (IGROV1 ovarian): > 100 µM | GI50 (HOP-92 NSCLC): 9.44 µM | TGI (HOP-92 NSCLC): > 100 µM | GI50 (MALME-3M melanoma): 3.7 µM | TGI (MALME-3M melanoma): > 100 µM | GI50 (BT-549 breast): 2.71 µM | TGI (BT-549 breast): 14.2 µM | GI50 (MDA-MB-231 breast): 6.09 µM | TGI (MDA-MB-231 breast): 45.2 µM | GI50 (OVCAR-4 ovarian): 7.95 µM | TGI (OVCAR-4 ovarian): > 100 µM | GI50 (HCC-2998 colon): 6.91 µM | TGI (HCC-2998 colon): 36 µM | GI50 (MDA-MB-435): 1.6 µM | TGI (MDA-MB-435): 3.92 µM | GI50 (SN12C renal): 4.17 µM | TGI (SN12C renal): > 100 µM | GI50 (UACC-257 melanoma): 5.01 µM | TGI (UACC-257 melanoma): > 100 µM | GI50 (UACC-62 melanoma): 2.97 µM | TGI (UACC-62 melanoma): 37.1 µM | GI50 (MOLT-4 leukemia): 3.58 µM | TGI (MOLT-4 leukemia): > 100 µM | GI50 (HCT-116 colon): 4.67 µM | TGI (HCT-116 colon): > 100 µM | GI50 (ACHN renal): 5.27 µM | TGI (ACHN renal): > 100 µM | GI50 (HOP-62 NSCLC): 4.12 µM | TGI (HOP-62 NSCLC): > 100 µM | GI50 (CAKI-1 renal): 3.76 µM | TGI (CAKI-1 renal): > 100 µM | GI50 (SF-539 CNS): 3.03 µM | TGI (SF-539 CNS): 12.3 µM | GI50 (SF-268 CNS): 5.37 µM | TGI (SF-268 CNS): > 100 µM | GI50 (HL-60(TB) leukemia): 2.51 µM | TGI (HL-60(TB) leukemia): 5.55 µM | GI50 (786-0 renal): 4.89 µM | TGI (786-0 renal): > 100 µM | GI50 (RXF 393 renal): 1.99 µM | TGI (RXF 393 renal): 5.05 µM | GI50 (NCI-H23 lung): 5.05 µM | TGI (NCI-H23 lung): > 100 µM | GI50 (M14 melanoma): 4 µM | TGI (M14 melanoma): 64.1 µM | GI50 (SF-295 CNS): 2.97 µM | TGI (SF-295 CNS): 12.7 µM | GI50 (U251 CNS): 3.78 µM | TGI (U251 CNS): > 100 µM | GI50 (OVCAR-8 ovarian): 7.65 µM | TGI (OVCAR-8 ovarian): > 100 µM | GI50 (NCI/ADR-RES ovarian): 3.8 µM | TGI (NCI/ADR-RES ovarian): 27.4 µM | GI50 (OVCAR-5 ovarian): 7.96 µM | TGI (OVCAR-5 ovarian): > 100 µM | GI50 (T-47D breast): 4.5 µM | TGI (T-47D breast): > 100 µM | GI50 (SK-MEL-28 melanoma): 7.7 µM | TGI (SK-MEL-28 melanoma): > 100 µM | GI50 (NCI-H226 lung): 4.58 µM | TGI (NCI-H226 lung): > 100 µM | GI50 (SW-620 colon): 3.32 µM | TGI (SW-620 colon): > 100 µM | GI50 (SNB-75 CNS): 1.75 µM | TGI (SNB-75 CNS): 6.26 µM | GI50 (K-562 leukemia): 3.12 µM | TGI (K-562 leukemia): > 100 µM | GI50 (A549 NSCLC): 5.83 µM | TGI (A549 NSCLC): > 100 µM | GI50 (RPMI-8226 leukemia): 5 µM | TGI (RPMI-8226 leukemia): > 100 µM | GI50 (OVCAR-3 ovarian): 2.82 µM | TGI (OVCAR-3 ovarian): 7.95 µM | GI50 (HS 578T breast): 2.51 µM | TGI (HS 578T breast): 7.53 µM | GI50 (SNB-19 CNS): 4.12 µM | TGI (SNB-19 CNS): > 100 µM | TGI (TK-10 renal): 40.9 µM | GI50 (LOX IMVI melanoma): 3.79 µM | TGI (LOX IMVI melanoma): > 100 µM | GI50 (CCRF-CEM leukemia): 3.61 µM | TGI (CCRF-CEM leukemia): > 100 µM | GI50 (KM12 colon): 4.73 µM | TGI (KM12 colon): > 100 µM | GI50 (UO-31 renal): 3.16 µM | TGI (UO-31 renal): > 100 µM | GI50 (PC-3 prostate): 4.76 µM | TGI (PC-3 prostate): > 100 µM | GI50 (SK-OV-3 ovarian): 4.27 µM | TGI (SK-OV-3 ovarian): > 100 µM | GI50 (A498 renal): 5.73 µM | TGI (A498 renal): 87 µM | GI50 (HCT-15 colon): 3.48 µM | TGI (HCT-15 colon): > 100 µM | GI50 (DU-145 prostate): 9.89 µM | TGI (DU-145 prostate): > 100 µM | GI50 (HT29 colon): 2.15 µM | TGI (HT29 colon): 5.1 µM | GI50 (EKVX NSCLC): 8.03 µM | TGI (EKVX NSCLC): > 100 µM | GI50 (COLO 205 colon): 4.25 µM | TGI (COLO 205 colon): 25 µM | GI50 (SK-MEL-2 melanoma): 1.04 µM | TGI (SK-MEL-2 melanoma): 3.52 µM
